Values of other authors, collected in US20020058028A1, “METHOD OF IN SITU DIAGNOSIS BY SPECTROSCOPIC ANALYSIS OF BIOLOGICAL STAIN COMPOSITIONS” (priority 1999, published 2002).
Like-named read-outs stand apart in the source and are kept apart here.

Key:
Schistosoma mansoni = conditions: in vitro
Staphylococcus aureus = conditions: for active concentration against epidemic strains of methicillin-resistant Staphylococcus aureus: compared with vancomycin
[1] = test system: human epidermoid carcinoma (A-253) cells
bladder carcinoma cells = conditions: in vitro; versus Azure C, Methylene violet, Thionin, methylene green, haematoporphyrin
solid Ehrlich carcinomas = conditions: mice; laser 647 nm and 676 nm
HeLa cells = conditions: for incubation time to saturation of uptake: 10(−5) M
[2] = test system: local tumor recurrence in the area of the anastomosis
Trichoderma Viride = conditions: outside the body
[3] = test system: microtubule cytoskeleton of cultured cells; conditions: untreated control cells normal
C. albicans [4] = conditions: energy dose 1.32 J at 2.04 J/cm2
[5] = test system: several other Candida spp.
[6] = test system: influenza or encephalomyelitis viruses; conditions: human blood plasma; plasma proteins not significantly altered
C. albicans [7] = conditions: conditions employed

## CN(C)c1ccc2cc3ccc(N(C)C)cc3nc2c1 [acridine orange]
Schistosoma mansoni
  killing upon exposure to light: kills

## Cc1cc(=[N+](C)C)cc2sc3cc(N(C)C)cc(C)c3nc1-2.[Cl-] [dimethyl methylene blue]
Staphylococcus aureus
  active concentration against epidemic strains of methicillin-resistant Staphylococcus aureus: lower than that of vancomycin
  increase in bactericidal activity on illumination, typical: ~4 fold

## CCCCN1C(=O)C(=C/C=C/C=C2\Oc3ccccc3N2CCCS(=O)(=O)[O-])C(=O)N(CCCC)C1=S.[Na+] [merocyanine 540]
[1]
  white light dose for ninety % reduction of clonogenicity: 1.5 J/cm2

## CN(C)c1ccc2nc3ccc(=[N+](C)C)cc-3sc2c1 [methylene blue]
Schistosoma mansoni
  killing upon exposure to light: kills
Bladder carcinoma cells
  phototoxicity compared with other dyes: most phototoxic
Solid Ehrlich carcinomas
  tumor destruction: significant tumor destruction, including complete tumor destruction
HeLa cells; HeLa cells
  incubation time to saturation of uptake: 6 h
  cell photoinactivation, comparison: higher than that produced by TB
HeLa cells; HeLa cells, elevated photoinactivation detected at this concentration
  concentration at which dark damage was not observed: 10(−5) M
Staphylococcus aureus
  increase in bactericidal activity on illumination, typical: ~4 fold
[2]; after PDT-treatment
  local tumor growth in treated areas: no local tumor growth within 6 months
[2]; experimental or clinical
  complications during or after PDT: no experimental or clinical complications
Trichoderma Viride
  killing upon illumination: kill
[3]
  microtubule network after photodynamic treatment: considerable or severe disorganization of the microtubule network
Small adenocarcinomas; 72 hours after PDT-treatment, proven experimentally
  tumor necrosis: 4-5 mm
Small adenocarcinomas; after the second PDT-treatment
  tumors destroyed: 6 out of 10
Small adenocarcinomas; after the treatment
  carcinomas with inhibited growth: Four
C. albicans [4]
  sensitization to killing by GaAs laser light: able to sensitize

## CCNc1cc2[s+]c3cc(NCC)c(C)cc3nc2cc1C.[Cl-] [new methylene blue]
Staphylococcus aureus
  active concentration against epidemic strains of methicillin-resistant Staphylococcus aureus: lower than that of vancomycin
  increase in bactericidal activity on illumination, typical: ~4 fold

## Cc1cc2nc3ccc(N(C)C)cc3[s+]c2cc1N.[Cl-] [toluidine blue O, 3-amino-7-(dimethylamino)-2-methyl phenothiazin-5-ium chloride]
[5]
  sensitization to killing by HeNe laser light: able to sensitize
Kluyveromyces marxianus
  ATP levels after photodynamic treatment: lowered the ATP levels
  enzyme inhibition after treatment with dye and light: inhibition of alcohol dehydrogenase, cytochrome c oxidase, glyceraldehyde-3-phosphate dehydrogenase and hexokinase
Kluyveromyces marxianus; photosensitizer with light
  clonogenicity: induce loss of clonogenicity
HeLa cells
  concentration at which dark damage was not observed: 10(−5) M
HeLa cells; HeLa cells
  incubation time to saturation of uptake: 12 h
[1]
  white light dose for ninety % reduction of clonogenicity: 1.0 J/cm2
[6]
  virus inactivation by light in presence of dye: inactivated by light
[3]
  microtubule network after photodynamic treatment: considerable or severe disorganization of the microtubule network

## CN[C@H](CC(C)C)C(=O)N[C@H]1C(=O)N[C@@H](CC(N)=O)C(=O)N[C@H]2C(=O)N[C@H]3C(=O)N[C@H](C(=O)N[C@H](C(=O)O)c4cc(O)cc(O)c4-c4cc3ccc4O)[C@H](O)c3ccc(c(Cl)c3)Oc3cc2cc(c3O[C@@H]2O[C@H](CO)[C@@H](O)[C@H](O)[C@H]2O[C@H]2C[C@](C)(N)[C@H](O)[C@H](C)O2)Oc2ccc(cc2Cl)[C@H]1O [vancomycin]
Staphylococcus aureus; comparator
  concentration against epidemic strains of methicillin-resistant Staphylococcus aureus: ≥ 0.5 µM

## Dihaematoporphyrin ester
C. albicans [7]
  photosensitizer effectiveness: not an effective photosensitizer

## aluminum disulphonated phthalocyanine
C. albicans [4]
  sensitization to killing by GaAs laser light: not

## rhodamine 123
[1]
  white light dose for ninety % reduction of clonogenicity: 1.2 J/cm2
